The text below walks through data of ChEMBL document CHEMBL1142932 (Bioorg Med Chem, 2007).

Broadly, the Ki is the equilibrium dissociation constant of an inhibitor or competing ligand from its target.

The target in experiment [1] is T1, Adenosine receptor A1 (Homo sapiens) (UniProt P30542).
T1 sequence (whole entry): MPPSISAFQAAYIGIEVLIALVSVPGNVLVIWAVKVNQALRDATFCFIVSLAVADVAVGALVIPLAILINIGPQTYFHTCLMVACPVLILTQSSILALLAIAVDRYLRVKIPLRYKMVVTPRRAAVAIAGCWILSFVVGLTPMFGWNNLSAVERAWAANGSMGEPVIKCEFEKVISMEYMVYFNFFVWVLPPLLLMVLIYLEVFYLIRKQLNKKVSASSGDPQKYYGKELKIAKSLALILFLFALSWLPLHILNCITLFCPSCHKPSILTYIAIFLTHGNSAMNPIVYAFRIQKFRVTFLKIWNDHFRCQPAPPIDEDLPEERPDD
Kind of experiment: Displacement of [3H]DPCPX from human recombinant adenosine A1 receptor expressed in HEK293T cells at 100 uM. To be noted: HEK-293T. Format: cell-based. On the technique in general: Displacement assays read how much labelled ligand stays bound in the presence of the test substance.

Experiment [2] deals with T2, Adenosine receptor A3 (Homo sapiens) (UniProt P0DMS8).
T2 sequence (whole entry): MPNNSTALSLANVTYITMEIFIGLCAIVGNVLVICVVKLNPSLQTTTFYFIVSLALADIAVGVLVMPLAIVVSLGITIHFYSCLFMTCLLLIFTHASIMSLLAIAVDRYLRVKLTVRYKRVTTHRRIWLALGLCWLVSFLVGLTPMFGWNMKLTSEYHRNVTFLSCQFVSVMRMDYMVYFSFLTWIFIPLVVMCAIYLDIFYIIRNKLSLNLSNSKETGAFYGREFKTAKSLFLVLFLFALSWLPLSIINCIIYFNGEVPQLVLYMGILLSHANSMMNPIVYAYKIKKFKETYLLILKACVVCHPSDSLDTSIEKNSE
Kind of experiment: Displacement of [3H]NECA from human recombinant adenosine A3 receptor expressed in HEK293T cells at 100 uM. In kind it is cell-based. To be noted: HEK-293T.

Experiment [3] deals with T3, Adenosine receptor A2a (Homo sapiens, UniProt P29274). Kind of experiment: Displacement of [3H]CGS21680 from human recombinant adenosine A2A receptor expressed in HEK293T cells at 100 uM. To be noted: HEK-293T. Format: cell-based.
T3 sequence (P29274 whole entry): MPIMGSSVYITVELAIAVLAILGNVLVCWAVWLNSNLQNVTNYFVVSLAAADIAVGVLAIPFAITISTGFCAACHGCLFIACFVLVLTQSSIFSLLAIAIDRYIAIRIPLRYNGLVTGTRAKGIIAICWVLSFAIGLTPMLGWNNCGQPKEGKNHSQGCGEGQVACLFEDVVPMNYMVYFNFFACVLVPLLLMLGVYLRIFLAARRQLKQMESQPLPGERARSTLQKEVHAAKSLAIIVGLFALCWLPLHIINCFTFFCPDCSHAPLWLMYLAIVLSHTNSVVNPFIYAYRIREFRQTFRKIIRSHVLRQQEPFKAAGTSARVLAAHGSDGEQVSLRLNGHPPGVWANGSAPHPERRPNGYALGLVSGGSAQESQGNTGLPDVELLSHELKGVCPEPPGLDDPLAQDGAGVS
In a further experiment the target is T4, Adenosine receptor A1 (Homo sapiens, UniProt P30542).
T4 sequence (P30542 whole entry): T1 sequence (whole entry)
Nature of the experiment: Displacement of [3H]DPCPX from human recombinant adenosine A1 receptor expressed in HEK293T cells. Format: cell-based, HEK-293T.

A further experiment addresses T5, Adenosine receptor A3 (Homo sapiens, UniProt P0DMS8).
T5 sequence (P0DMS8 whole entry): T2 sequence (whole entry)
Kind of experiment: Displacement of [3H]NECA from human recombinant adenosine A3 receptor expressed in HEK293T cells. Format: cell-based, HEK-293T.

In experiment [4] the target is T3, Adenosine receptor A2a. Nature of the experiment: biochemical.

For `CN1C(=O)C(N)C(c2ccncc2Cl)N(C)C1=O` (stereo unspecified), the results for the Activity (in experiment [1]; in experiment [2]; at Adenosine receptor A2a [3]) were 8%, 3% and 15%, respectively.

Regarding `Cn1c(=O)c2[nH]c3cnccc3c2n(C)c1=O`, the Ki came to 11.7 µM on Adenosine receptor A1 and 0.526 µM on Adenosine receptor A3.

As for `Cn1c(=O)c2c(ncn2C)n(C)c1=O`, the Activity in experiment [2] is 9%.

Turning to `Cn1c(=O)c2[nH]c3cccnc3c2n(C)c1=O`, the values for the Ki at Adenosine receptor A1 and at Adenosine receptor A3 were 0.379 µM and 0.0139 µM, respectively.

For the compound `Oc1c(Br)cc2[nH]c3cnccc3c2c1Br`, the Ki on Adenosine receptor A1 was 7.37 µM; at Adenosine receptor A3, 2.05 µM; at Adenosine receptor A2a [4], 4.92 µM.

`CN1CC(N(C)c2cccnc2)C(=O)N(C)C1=O` (stereo unspecified): the Activity worked out at 9% in experiment [1], 0.2% in experiment [2] and 29% on Adenosine receptor A2a [3].

In the case of `Cn1c(=O)c2c(c3ccncc3n2C)n(C)c1=O`, the Ki on Adenosine receptor A3 came to 3.19 µM; at Adenosine receptor A2a [4], 4.19 µM.

`Cn1c(=O)c2c(c3ncccc3n2C)n(C)c1=O`: the Ki came to 13.5 µM on Adenosine receptor A1 and 0.332 µM at Adenosine receptor A3.

For the compound `CN1CC(Nc2cccnc2)C(=O)N(C)C1=O` (stereo unspecified), the Activity in experiment [1] was 22%; in experiment [2], 25%; on Adenosine receptor A2a [3], 38%.
